# No end group written: not given here.
# Tests used:
# Experiment in all cases: biochemical
# [1] = target: DRB5*0101 (Homo sapiens, UniProt P01903+Q30154); settings: Binding affinity DRB5 *0101
# [2] = target: DRB1*0901 (Homo sapiens, UniProt P01903+P01911, A100R/A103E/D57H/D86V/F55Y/F60I/F76Y/I96F/K127E/L162R/M171V/P40D/Q125H/Q99R/R33Q/R42F/S133A/S66N/T210M/V115G/W38K/Y107V/Y59G/Y89S); type: binding
# [3] = target: DRB1*1201 (Homo sapiens, UniProt P01903+P01911, A100R/A169T/D57E/D86V/F55L/H45Y/K41T/L162R/M171V/P40S/Q125H/Q178H/Q39Y/Q99D/R42G/S66L/T262R/V114A/V67L/W38E/Y59H/Y61H/Y89S); type: binding
# [4] = target: DR1 (DRB1*0101) (Homo sapiens, UniProt P01903+P01911, A100R/D57E/F55L/F60I/F76Y/I96L/L162R/M171V/P40L/Q125E/R42F/V115G/Y59C); type: binding
# [5] = target: DR4w4 (DRB1*0401) (Homo sapiens, UniProt P01903+P01911, A100K/A169T/F76Y/I96L/K127E/L162R/M171V/N62H/P40V/Q125Y/R42H/S133A/S149N/S66Y/V115G/V209L/W38E); type: binding
# [6] = target: DRB1*0405 (Homo sapiens, UniProt P01903+P01911, A100R/A169T/D86S/F76Y/I96L/K127E/L162R/M171V/N62H/P40V/Q125Y/R42H/S133A/S149N/S66Y/V115G/V209L/W38E); type: binding
# [7] = target: DRB1*1302 (Homo sapiens, UniProt P01903+P01911, A100E/A169T/K41T/L162R/M171V/P40S/Q125H/Q178H/Q39Y/Q99D/R42S/S66N/T262R/V115G/W38E/Y61H); type: binding
# Sequence of DRB1*1302 (P01903 26-254 limits assumed, other chains not shown): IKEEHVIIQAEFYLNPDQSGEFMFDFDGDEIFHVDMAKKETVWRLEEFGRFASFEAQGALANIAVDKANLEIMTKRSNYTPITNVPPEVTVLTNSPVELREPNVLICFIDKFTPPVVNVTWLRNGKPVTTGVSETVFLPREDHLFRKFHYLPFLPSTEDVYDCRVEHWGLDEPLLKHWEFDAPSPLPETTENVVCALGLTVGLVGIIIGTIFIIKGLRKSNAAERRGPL
# [8] = target: DRB1*0301 (Homo sapiens, UniProt P01903+P01911, A100K/A102G/A103R/A169T/F55Y/I96L/K41T/L162R/M171V/P40S/Q125H/Q178H/Q39Y/R42S/S66N/T106N/T262R/W38E/Y61H); type: binding
# Sequence of DRB1*0301 (P01903 26-254 limits assumed, other chains not shown): as above
# [9] = target: DRB1*1501 (Homo sapiens, UniProt P01903+P01911); type: binding
# [10] = target: DRB4*0101 (Homo sapiens, UniProt P01903+P13762, G164S); type: binding
# [11] = target: DRB1*1101 (Homo sapiens, UniProt P01903+P01911, A100R/A169T/A87E/I96F/K41T/L162R/M171V/P40S/Q125H/Q178H/Q39Y/Q99D/R42S/S66Y/T262R/V115G/W38E); settings: Binding affinity DRB1 *1101
# Sequence of DRB1*1101 (P01903 26-254 limits assumed, other chains not shown): as above
# [12] = target: DR7 (DRB1*0701) (Homo sapiens, UniProt P01903+P01911, A100R/A102G/A103Q/D57E/D86V/E43K/F76Y/K127E/L162R/M171V/P40G/Q125H/Q99D/R33Q/R42Y/R54Q/S133A/S66F/T210M/V115G/Y107V/Y59L/Y89S); type: binding
# [13] = target: DRB1*0802 (Homo sapiens, UniProt P01903+P01911, A100R/A103L/A169T/F76Y/H45Y/I96F/K41T/L162R/M171V/P40S/Q125H/Q178H/Q39Y/Q99D/R218S/R42G/S66Y/V115G/W38E); type: binding
Compound,IC50 [1],IC50 [2],IC50 [3],IC50 [4],IC50 [5],IC50 [6],IC50 [7],IC50 [8],IC50 [9],IC50 [10],IC50 [11],IC50 [12],IC50 [13]
FKKFLKGIPKKSCML [Peptide 89.0073],66 nM,2480 nM,709 nM,20 nM,452 nM,17500 nM,2660 nM,> 20000 nM,508 nM,2220 nM,64 nM,2090 nM,320 nM
VEFMSFLTALKRFLQ [Peptide 89.0015],19 nM,,91 nM,19 nM,72 nM,453 nM,9820 nM,347 nM,1840 nM,42 nM,44 nM,109 nM,102 nM
ISEVMGDTPEWIQRL [Peptide 90.0052],> 20000 nM,> 20000 nM,> 20000 nM,2880 nM,> 20000 nM,4110 nM,9 nM,55 nM,6830 nM,2040 nM,> 20000 nM,4020 nM,> 20000 nM
DWCVAAFGVTGTVAE [Peptide 89.0042],8660 nM,901 nM,> 20000 nM,11 nM,294 nM,184 nM,> 20000 nM,> 20000 nM,64 nM,601 nM,3230 nM,349 nM,3500 nM
NGWFYVEAVIDRQTG [Peptide 90.0062],558 nM,453 nM,4040 nM,157 nM,69 nM,12 nM,4870 nM,241 nM,> 20000 nM,14 nM,3350 nM,157 nM,3990 nM
VDFIDTQLSICEQAE [Peptide 89.0078],1520 nM,6000 nM,2020 nM,,1280 nM,284 nM,1550 nM,3780 nM,609 nM,471 nM,3920 nM,426 nM,7430 nM
LKAICIENNSKTAKR [Peptide 90.0064],,> 20000 nM,4580 nM,62 nM,36 nM,369 nM,144 nM,86 nM,359 nM,85 nM,,6350 nM,
CC[C@H](C)[C@H](NC(=O)[C@H](Cc1c[nH]c2ccccc12)NC(=O)[C@H](CCC(=O)O)NC(=O)[C@@H]1CCCN1)C(=O)N[C@@H](CCC(N)=O)C(=O)N[C@@H](CCCNC(=N)N)C(=O)N[C@@H](CCC(N)=O)C(=O)N[C@H](C(=O)N[C@H](C(=O)N[C@@H](CC(C)C)C(=O)N[C@@H](CCC(N)=O)C(=O)N[C@@H](Cc1c[nH]cn1)C(=O)N[C@@H](CO)C(=O)N[C@@H](Cc1ccccc1)C(=O)N[C@@H](CC(N)=O)C(=O)O)C(C)C)[C@@H](C)O [Peptide 89.0011],11800 nM,6180 nM,4020 nM,2260 nM,18 nM,259 nM,473 nM,155 nM,8860 nM,4.5 nM,,6120 nM,213 nM
IVHLKGDPNSLKCLR [Peptide 90.0255],2560 nM,> 20000 nM,4650 nM,229 nM,83 nM,> 20000 nM,574 nM,42 nM,7830 nM,1590 nM,,> 20000 nM,2210 nM
DWVMAIFGVNPTVAE [Peptide 89.0079],,1620 nM,430 nM,58 nM,45 nM,85 nM,60 nM,431 nM,26 nM,6.5 nM,1820 nM,108 nM,6720 nM
CMLIQPPKLRSTAAA [Peptide 89.0047],904 nM,7540 nM,3690 nM,,2380 nM,> 20000 nM,3610 nM,5760 nM,2640 nM,567 nM,982 nM,470 nM,2650 nM
QWAYDNDIVDDSEIA [Peptide 90.0036],> 20000 nM,> 20000 nM,> 20000 nM,> 20000 nM,11800 nM,4260 nM,> 20000 nM,990 nM,> 20000 nM,> 20000 nM,> 20000 nM,> 20000 nM,> 20000 nM
RLTVAKLMSNLLSIP [Peptide 89.0065],498 nM,994 nM,107 nM,4.3 nM,6.2 nM,43 nM,7.2 nM,4150 nM,9.5 nM,4 nM,62 nM,45 nM,483 nM
RGIIILLLIRFRCSK [Peptide 89.0063],> 20000 nM,> 20000 nM,2010 nM,674 nM,883 nM,241 nM,352 nM,> 20000 nM,431 nM,283 nM,,721 nM,6420 nM
DHDITDDSDIAYKYA [Peptide 90.0117],6830 nM,,> 20000 nM,> 20000 nM,510 nM,2210 nM,535 nM,100 nM,> 20000 nM,577 nM,> 20000 nM,> 20000 nM,> 20000 nM
FQVIELQMALETLNA [Peptide 90.0025],> 20000 nM,1970 nM,708 nM,20 nM,75 nM,2490 nM,187 nM,743 nM,449 nM,15 nM,3990 nM,2650 nM,> 20000 nM
EVHMENESIYCPDSV [Peptide 90.0238],> 20000 nM,> 20000 nM,> 20000 nM,634 nM,5250 nM,> 20000 nM,2370 nM,410 nM,516 nM,> 20000 nM,> 20000 nM,> 20000 nM,> 20000 nM
TPEWIQRLTIIQHGI [Peptide 89.0030],5890 nM,2430 nM,418 nM,669 nM,190 nM,204 nM,413 nM,> 20000 nM,17600 nM,6.8 nM,389 nM,155 nM,374 nM
YFKYFKEDAKKYSKT [Peptide 90.0253],289 nM,> 20000 nM,> 20000 nM,4010 nM,3620 nM,> 20000 nM,> 20000 nM,108 nM,> 20000 nM,> 20000 nM,,> 20000 nM,

# From US9340577B2, “HLA binding motifs and peptides and their uses” (priority 1992, dated 2016)
